According to patent US20030008814A1, “Pseudomycin phosphate prodrugs” (priority 2002, published 2003):

Assay: Tail vein toxicity
Format: in vivo
Details: male ICR mice, IV lateral tail vein, 20 mg/kg at 0, 24, 48 and 72 hours, monitored 7 days; in comparison to pseudomycin B
Description: Mice were treated intravenously (IV) through the lateral tail vein with 0.1 ml of testing compound (20 mg/kg) at 0, 24, 48 and 72 hours. Two mice were included in each group. Compounds were formulated in 5.0% dextrose and sterile water for injection. The mice were monitored for 7 days following the first treatment and observed closely for signs of irritation including erythema, swelling, discoloration, necrosis, tail loss and any other signs of adverse effects indicating toxicity.
The mice used in the study were outbred, male ICR mice having an average weight between 18-20 g (available from Harlan Sprangue Dawley, Indianapolis, Ind.

Compound: C/C=C1\NC(=O)[C@H]([C@H](C)O)NC(=O)[C@H](CCNC(=O)OCc2ccc(OP(=O)(OCc3ccccc3)OCc3ccccc3)cc2)NC(=O)[C@H](CCCCNC(=O)OCc2ccc(OP(=O)(OCc3ccccc3)OCc3ccccc3)cc2)NC(=O)[C@H](CC(=O)O)NC(=O)[C@@H](CCNC(=O)OCc2ccc(OP(=O)(OCc3ccccc3)OCc3ccccc3)cc2)NC(=O)[C@@H](NC(=O)CC(O)CCCCCCCCCCC)COC(=O)[C@H]([C@H](O)CCl)NC(=O)[C@H](C(O)C(=O)O)NC1=O (stereo partly shown) [Compound 1A-1]
- tail vein toxicity: improvement in tail vein toxicity
